# Results taken from the supplement of paper PMC11208160.
# Assay: recombinant barcode read abundance after kanamycin selection (control-corrected) (log10(CPM+1)); higher = more efficient recombination; sequences stand for … in AGTGCAGAGAAAATCGGCCAGTTTTCTCTGCCTGCAGTCCGCATGCCGT…AGATTTATGCAGCGGACTGCCTTTCTCCCAAAGTGATAAACCGGACAGTATCATGGACCGGTTTTCCCGGTAATCCGTATTTGCAAGGTTGGTTTCACT; site = the 11-nt target
# How it was run: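 Recombination efficiency in this pooled E. coli screen uses counts per million of barcodes at recombinant junctions, averaged and corrected against the control. The reported form is log10(CPM+1). Two replicates were plated on chloramphenicol/ampicillin LB agar as control and two on chloramphenicol/ampicillin/kanamycin with 0.1 mM IPTG.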
# 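Further: IS621 recombinase and bridge RNA in Escherichia coli cells.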
row,Sequence,recombinant barcode read abundance (log10)
1,CGATGGACTTGGGTTCTAACCTGTTGCCG (site CAATGGGCTCG),0.102
2,CGATGGACTTGGGTTCTAACCTGTTGCCG (site CGATGGACTCG),0.956
3,CGATGTCCTTGGGTTCTAACCTGTTGCCT (site CGATGTCCTAG),0.864
4,CGATGTCCTTGGGTTCTAACCTGTTGCCT (site CGATGTGCTAG),0.039
5,CGATTACCTTGGGTTCTAACCTGTTGCCT (site CGATTAACTAG),0.0753
6,CGATTACCTTGGGTTCTAACCTGTTGCCT (site CGATTACCTAG),0.264
7,CGATTACCTTGGGTTCTAACCTGTTGCCT (site CGATTAGCTAG),0.38
8,CGATTACCTTGGGTTCTAACCTGTTGCCT (site CGATTATCTAG),0.11
9,CGATTAGCTTGGGTTCTAACCTGTTGCCT (site CGATTAACTAG),0.161
10,CGATTAGCTTGGGTTCTAACCTGTTGCCT (site CGATTACCTAG),0.038
11,CGATTAGCTTGGGTTCTAACCTGTTGCCT (site CGATTAGCTAG),0.169
12,CGATTAGCTTGGGTTCTAACCTGTTGCCT (site CGATTATCTAG),0.186
13,CGCACGTCTTGGGTTCTAACCTGTTGCTT (site CACAAGTCTAA),0.185
14,CGCACGTCTTGGGTTCTAACCTGTTGCTT (site CGCACGTCTAA),0.0911
15,CGCCACACTTGGGTTCTAACCTGTTGCCT (site CGACACACTAG),0.426
16,CGCCACACTTGGGTTCTAACCTGTTGCCT (site CGCCACACTAG),0.296
17,CGCCACACTTGGGTTCTAACCTGTTGCCT (site CGGCACACTAG),0.689
18,CGCCACACTTGGGTTCTAACCTGTTGCCT (site CGTCACACTAG),1.22
19,CGCCGAACTTGGGTTCTAACCTGTTGCCT (site AGCCGAACTAG),0.0619
20,CGCCGAACTTGGGTTCTAACCTGTTGCCT (site CGCCGAACTAG),0.0225
21,CGCCGAACTTGGGTTCTAACCTGTTGCCT (site GGCCGAACTAG),0.339
22,CGCCGAACTTGGGTTCTAACCTGTTGCCT (site TGCCGAACTAG),0.0386

row,Sequence,recombinant barcode read abundance (log10)
1,CGCCTGCCTTGGGTTCTAACCTGTTGCCT (site CGCCAGCCTAG),0.119
2,CGCCTGCCTTGGGTTCTAACCTGTTGCCT (site CGCCTGCCTAG),0.113
3,CGCCTTCCTTGGGTTCTAACCTGTTGCAT (site CGCCATCCTAT),0.121
4,CGCCTTCCTTGGGTTCTAACCTGTTGCAT (site CGCCCTCCTAT),0.157
5,CGCCTTCCTTGGGTTCTAACCTGTTGCAT (site CGCCGTCCTAT),0.0857
6,CGCCTTCCTTGGGTTCTAACCTGTTGCAT (site CGCCTTCCTAT),0.0767
7,CGCGCAGCTTGGGTTCTAACCTGTTGCCT (site CGAGCAGCTAG),0.382
8,CGCGCAGCTTGGGTTCTAACCTGTTGCCT (site CGCGCAGCTAG),0.267
9,CGCGCAGCTTGGGTTCTAACCTGTTGCCT (site CGGGCAGCTAG),0.135
10,CGCGCAGCTTGGGTTCTAACCTGTTGCCT (site CGTGCAGCTAG),0.416
11,CGCGTAACTTGGGTTCTAACCTGTTGCCT (site CGCGCAACTAG),0.112
12,CGCGTAACTTGGGTTCTAACCTGTTGCCT (site CGCGTAACTAG),0.123
13,CGCTCCTCTTGGGTTCTAACCTGTTGCAT (site CGCTCCTCTAT),0
14,CGCTCCTCTTGGGTTCTAACCTGTTGCAT (site GCTCGACCTCA),0.177
15,CGCTCCTCTTGGGTTCTAACCTGTTGCCT (site AGCTCCTCTAG),0.0659
16,CGCTCCTCTTGGGTTCTAACCTGTTGCCT (site CGCTCCTCTAG),0.027
17,CGCTCCTCTTGGGTTCTAACCTGTTGCCT (site GGCTCCTCTAG),0.0456
18,CGCTCCTCTTGGGTTCTAACCTGTTGCCT (site TGCTCCTCTAG),0.103
19,CGCTGACCTTGGGTTCTAACCTGTTGCCT (site CGCTGACCTAG),0.0666
20,CGCTGACCTTGGGTTCTAACCTGTTGCCT (site GCAACCTCTTA),0.11
21,CGCTGATCTTGGGTTCTAACCTGTTGCCT (site AGCTGATCTAG),0.0494
22,CGCTGATCTTGGGTTCTAACCTGTTGCCT (site CGCTGATCTAG),0.0169

row,Sequence,recombinant barcode read abundance (log10)
1,CGCTGATCTTGGGTTCTAACCTGTTGCCT (site GGCTGATCTAG),0.14
2,CGCTGATCTTGGGTTCTAACCTGTTGCCT (site TGCTGATCTAG),0.0802
3,CGCTGCCCTTGGGTTCTAACCTGTTGCTT (site CGCTGACCTAA),0.102
4,CGCTGCCCTTGGGTTCTAACCTGTTGCTT (site CGCTGCCCTAA),0.113
5,CGCTGCCCTTGGGTTCTAACCTGTTGCTT (site CGCTGGCCTAA),0.0609
6,CGCTGCCCTTGGGTTCTAACCTGTTGCTT (site CGCTGTCCTAA),0.512
7,CGCTGGACTTGGGTTCTAACCTGTTGCCT (site CGCTAGACTAG),0.0452
8,CGCTGGACTTGGGTTCTAACCTGTTGCCT (site CGCTCGACTAG),0.0114
9,CGCTGGACTTGGGTTCTAACCTGTTGCCT (site CGCTGGACTAG),0.158
10,CGCTGGACTTGGGTTCTAACCTGTTGCCT (site CGCTTGACTAG),0.0799
11,CGCTTGTCTTGGGTTCTAACCTGTTGCCT (site CGCTAGTCTAG),0.0576
12,CGCTTGTCTTGGGTTCTAACCTGTTGCCT (site CGCTCGTCTAG),0.00757
13,CGCTTGTCTTGGGTTCTAACCTGTTGCCT (site CGCTGGTCTAG),0.117
14,CGCTTGTCTTGGGTTCTAACCTGTTGCCT (site CGCTTGTCTAG),0.15
15,CGGAAGTCTTGGGTTCTAACCTGTTGCCT (site CGGAAGACTAG),0.0548
16,CGGAAGTCTTGGGTTCTAACCTGTTGCCT (site CGGAAGCCTAG),0.452
17,CGGAAGTCTTGGGTTCTAACCTGTTGCCT (site CGGAAGGCTAG),0.247
18,CGGAAGTCTTGGGTTCTAACCTGTTGCCT (site CGGAAGTCTAG),1.7
19,CGGAATCCTTGGGTTCTAACCTGTTGCAT (site CGGAATCCTAA),0.297
20,CGGAATCCTTGGGTTCTAACCTGTTGCAT (site CGGAATCCTAC),0.841
21,CGGAATCCTTGGGTTCTAACCTGTTGCAT (site CGGAATCCTAG),0.29
22,CGGAATCCTTGGGTTCTAACCTGTTGCAT (site CGGAATCCTAT),1.15

row,Sequence,recombinant barcode read abundance (log10)
1,CGGAATCCTTGGGTTCTAACCTGTTGCTT (site CGGAATCCTAA),0.9
2,CGGAATCCTTGGGTTCTAACCTGTTGCTT (site CGGAATCCTAC),0.0576
3,CGGAATCCTTGGGTTCTAACCTGTTGCTT (site CGGAATCCTAG),0.316
4,CGGAATCCTTGGGTTCTAACCTGTTGCTT (site CGGAATCCTAT),0.707
5,CGGAGCCCTTGGGTTCTAACCTGTTGCAT (site CGCAGCCCTAT),0.0297
6,CGGAGCCCTTGGGTTCTAACCTGTTGCAT (site CGGAGCCCTAT),1.63
7,CGGAGCTCTTGGGTTCTAACCTGTTGCCT (site CGAAGCTCTAG),0.58
8,CGGAGCTCTTGGGTTCTAACCTGTTGCCT (site CGCAGCTCTAG),0.293
9,CGGAGCTCTTGGGTTCTAACCTGTTGCCT (site CGGAGCTCTAG),1.94
10,CGGAGCTCTTGGGTTCTAACCTGTTGCCT (site CGTAGCTCTAG),0.0387
11,CGGATAGCTTGGGTTCTAACCTGTTGCCT (site CGGATAGCTAG),0.885
12,CGGATAGCTTGGGTTCTAACCTGTTGCCT (site CGGATCGCTAG),0.0282
13,CGGATAGCTTGGGTTCTAACCTGTTGCCT (site CGGATGGCTAG),0.153
14,CGGATAGCTTGGGTTCTAACCTGTTGCCT (site CGGATTGCTAG),0.553
15,CGGATGGCTTGGGTTCTAACCTGTTGCCT (site CGGATAGCTAG),0.031
16,CGGATGGCTTGGGTTCTAACCTGTTGCCT (site CGGATCGCTAG),0.0869
17,CGGATGGCTTGGGTTCTAACCTGTTGCCT (site CGGATGGCTAG),0.64
18,CGGATGGCTTGGGTTCTAACCTGTTGCCT (site CGGATTGCTAG),0.0444
19,CGGATTGCTTGGGTTCTAACCTGTTGCCT (site CGGATAGCTAG),0
20,CGGATTGCTTGGGTTCTAACCTGTTGCCT (site CGGATCGCTAG),0.0723
